According to patent US20130053430A1, “MODULATION OF CETP EXPRESSION” (Isis Pharmaceuticals, Inc., priority 2010, published 2013):
e = 2'-O-(2-methoxyethyl) (MOE); d = 2'-deoxy (DNA)

Legend:
human CETP mRNA [1] = assay: Antisense inhibition of human CETP mRNA in SW872 liposarcoma cells (Example 1); format: cell-based; conditions: 150 nM antisense oligonucleotide, lipofectin, ~24 hours, relative to untreated control cells
Method in brief: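 SW872 cells transfected (lipofectin) with 150 nM 5-10-5 MOE gapmer (phosphorothioate, 5-methylcytosine). After about 24 h, CETP mRNA measured by qRT-PCR, normalized to GAPDH; values are % inhibition versus untreated cells.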

human CETP mRNA [2] = assay: Liver CETP mRNA in huCETP transgenic mice, normal chow (Example 5); format: in vivo; conditions: 50 mg/kg i.p. twice per week for 6 weeks, relative to PBS control
Description: Male huCETP transgenic mice were maintained on a 12-hour light/dark cycle and fed ad libitum normal Purina mouse chow. Animals were acclimated for at least 7 days in the research facility before initiation of the experiment. Antisense oligonucleotides (ASOs) were prepared in buffered saline (PBS) and sterilized by filtering through a 0.2 micron filter. Oligonucleotides were dissolved in 0.9% PBS for injection.
(§1) The mice were divided into five treatment groups. The first four groups received intraperitoneal injections of ISIS 349511, ISIS 349512, ISIS 349515, or ISIS 349517 at a dose of 50 mg/kg twice per week for 6 weeks. The fifth group received intraperitoneal injections of saline twice weekly for 6 weeks.
Twenty four hours after the final dose, the animals were sacrificed and liver tissue was isolated. Liver RNA was isolated for real-time PCR analysis of CETP. Two primer probe sets, hCETP (forward sequence […], designated herein as SEQ ID NO: 118; reverse sequence […], designated herein as SEQ ID NO: 119; probe sequence TGCGGACCGATGCCCCTGAX, designated herein as SEQ ID NO: 120) and hCETP2_LTS00182 (forward sequence […], designated herein as SEQ ID NO: 38; reverse sequence GGCTCACGCCTTTGCTGTT, designated herein as SEQ ID NO: 39: probe sequence CGGCTCGAGGTAGTGTTTACAGCCCTCX, designated herein as SEQ ID NO: 40), were used. These primer probe sets target the CETP mRNA transcript at different regions. As presented in Table 7, treatment with antisense oligonucleotides reduced CETP mRNA expression. The primer probe sets were used individually and collectively to measure CETP mRNA expression and gave similar results in all three cases. The RNA expression levels were normalized to murine Cyclophilin, a house-keeping gene, which is constitutively expressed. Cyclophilin levels were measured using the primer probe set described in Table 2. The results are expressed as percent inhibition of CETP mRNA, relative to the PBS control.

CETP protein = assay: Plasma CETP protein by ELISA in huCETP transgenic mice (Example 5); format: in vivo, human; conditions: normal chow, 50 mg/kg i.p. twice per week for 6 weeks, compared to PBS control
Description: as §1
Plasma levels of CETP protein were measured by ELISA (Alpco, N.H.). […] The results are expressed as percentage inhibition compared to the PBS control.

[3] = Plasma glucose in huCETP transgenic mice (Example 5); format: in vivo; conditions: 50 mg/kg i.p. twice per week
Description: as §1
Plasma glucose values were determined using a Beckman Glucose Analyzer II (Beckman Coulter) by a glucose oxidase method (Lott, J. A. et al., Clin. Chem. 21: 1754-1760, 1975).

[4] = Plasma cholesterol and triglyceride levels in huCETP transgenic mice (Example 5); format: in vivo; conditions: 50 mg/kg i.p. twice per week; for HDL / LDL / Total cholesterol / Triglycerides / VLDL: plasma
Description: as §1
Plasma cholesterol were extracted at weeks 3 and 6 by the method of Bligh and Dyer (Bligh, E. G. and Dyer, W. J. Can. J. Biochem. Physiol. 37: 911-917, 1959) and measured with an Olympus clinical analyzer (Hitachi Olympus AU400e, Melville, N.Y.). HDL, LDL and VLDL cholesterol were individually measured by HPLC. Triglyceride levels were measured with the use of a commercially available triglyceride kit (DCL Triglyceride Reagent; Diagnostic Chemicals Ltd.). The results are presented in Tables 13 and 14 and are expressed in mg/dL. There was a significant increase in HDL levels in mice treated with ISIS oligonucleotides.

[5] = Body and organ weights of huCETP transgenic mice (Example 5); format: in vivo; conditions: 50 mg/kg i.p. twice per week
Description: as §1
The body weights of the mice were measured pre-dose and regularly during the treatment period. The body weights are presented in Table 10, and are expressed in grams.

human CETP mRNA [6] = assay: Antisense inhibition of human CETP mRNA in primary hepatocytes from huCETP transgenic mice (Example 4); format: cell-based, mouse; conditions: cytofectin, ~24 hours
Method in brief: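 Primary hepatocytes from human CETP transgenic mice, 17,500 cells/well, transfected by cytofectin with 100 nM or 200 nM antisense oligonucleotide. After about 24 h, CETP mRNA quantified by real-time PCR, normalised to GAPDH, as percent inhibition versus untreated cells.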

human CETP mRNA [7] = assay: Dose-dependent antisense inhibition of human CETP in SW872 liposarcoma cells (Example 2); format: cell-based; conditions: Lipofectin, ~16 hours (Example 2)
Description: Cells were plated at a density of 50,000 cells per well in a 24-well plate and transfected using Lipofectin reagent with 50 nM, 150 nM, and 300 nM concentrations of each antisense oligonucleotide. After approximately 16 hours, RNA was isolated from the cells and CETP mRNA levels were measured by quantitative real-time PCR. CETP mRNA levels were normalized to total RNA content, as measured by the house-keeping gene, GAPDH mRNA levels. Results are presented in Table 4 as percent inhibition of CETP, relative to untreated control cells.

## ISIS 349515: 5-10-5 MOE gapmer AACTTCCACCACGCTGGAGG (sugars from the 5' end e5 d10 e5, backbone and methylation of C not given here)
Human CETP mRNA [1]
  % inhibition: 53%
Human CETP mRNA [2]
  Percent inhibition of liver CETP mRNA expression, Combined primer probe sets: 57%
  Percent inhibition of liver CETP mRNA expression, Primer probe set hCETP: 63%
  Percent inhibition of liver CETP mRNA expression, Primer probe set hCETP2_LTS00182: 52%
CETP protein
  Percent inhibition of plasma CETP protein levels: 40%
[3]; week 3
  Glucose levels: 275 mg/dL
[3]; week 6
  Glucose levels: 237 mg/dL
[4]; Week 3
  Percentage of HDL in total cholesterol: 68%
[4]; week 6
  Percentage of HDL in total cholesterol: 75%
  HDL: 66 mg/dL
  LDL: 18 mg/dL
  Total cholesterol: 87 mg/dL
  Triglycerides: 115 mg/dL
  VLDL: 4 mg/dL
[4]; week 3
  HDL: 60 mg/dL
  LDL: 19 mg/dL
  Total cholesterol: 89 mg/dL
  Triglycerides: 83 mg/dL
[5]; Week 0
  Body weights: 25 grams
[5]; Week 1
  Body weights: 26 grams
[5]; Week 2
  Body weights: 27 grams
[5]; Week 4
  Body weights: 28 grams
[5]; week 6
  Body weights: 28 grams
  Organ weights, Kidney: 349.5 mg
  Organ weights, Liver: 1.7 g
  Organ weights, Spleen: 89.3 mg
Human CETP mRNA [6]; 100 nM
  Percent inhibition of human CETP mRNA: 94%
Human CETP mRNA [6]; 200 nM
  Percent inhibition of human CETP mRNA: 94%

## ISIS 349512: 5-10-5 MOE gapmer TTGCCTTCTGCTACAAGCCC (sugars from the 5' end e5 d10 e5, backbone and methylation of C not given here)
Human CETP mRNA [1]
  % inhibition: 92%
Human CETP mRNA [2]
  Percent inhibition of liver CETP mRNA expression, Combined primer probe sets: 95%
  Percent inhibition of liver CETP mRNA expression, Primer probe set hCETP: 96%
  Percent inhibition of liver CETP mRNA expression, Primer probe set hCETP2_LTS00182: 94%
CETP protein
  Percent inhibition of plasma CETP protein levels: 76%
[3]; week 3
  Glucose levels: 267 mg/dL
[3]; week 6
  Glucose levels: 248 mg/dL
Human CETP mRNA [7]; 50 nM
  percent inhibition of CETP: 86%
Human CETP mRNA [7]; 150 nM
  percent inhibition of CETP: 98%
Human CETP mRNA [7]; 300 nM
  percent inhibition of CETP: 97%
[4]; Week 3
  Percentage of HDL in total cholesterol: 74%
[4]; week 6
  Percentage of HDL in total cholesterol: 74%
  HDL: 100 mg/dL
  LDL: 31 mg/dL
  Total cholesterol: 134 mg/dL
  Triglycerides: 92 mg/dL
  VLDL: 3 mg/dL
[4]; week 3
  HDL: 62 mg/dL
  LDL: 14 mg/dL
  Total cholesterol: 85 mg/dL
  Triglycerides: 100 mg/dL
[5]; Week 0
  Body weights: 19 grams
[5]; Week 1
  Body weights: 21 grams
[5]; Week 2
  Body weights: 24 grams
[5]; Week 4
  Body weights: 26 grams
[5]; week 6
  Body weights: 28 grams
  Organ weights, Kidney: 333.8 mg
  Organ weights, Liver: 2.1 g
  Organ weights, Spleen: 86.8 mg
Human CETP mRNA [6]; 100 nM
  Percent inhibition of human CETP mRNA: 86%
Human CETP mRNA [6]; 200 nM
  Percent inhibition of human CETP mRNA: 96%
